Measured values as given in US20210340130A1, “Compositions and methods for treating attention deficit disorders” (priority 2016, published 2021).

Columns and labels:
64 GPCRs = assay: Cell-based functional GPCR assays (Table 4.2.2-1); details: agonist at 30 μM, antagonist at 37.5 μM; 64 functional GPCR assays
Experimental: Additional studies involving G-protein coupled receptor assays were conducted for CX1739 to further illustrate the scope and flexibility of binding activity profiling available for ampakine screening according to the invention. CX1739 was evaluated in a second broad in vitro pharmacology screen, comprising cell-based functional G-protein coupled receptor assays for 64 GPCRs, identified in Table 4.2.2-1 below.

Rat (SD) [1] = assay: Radial arm maze - spatial memory; assay type: in vivo; details: for Minimum Effective Dose: IP
Experimental: Yet another animal model for evaluating ampakine drug activity employed herein is the well known and widely accepted Radial Arm Maze model. CX717 was tested for its ability to improve the performance of aged rats in an eight-arm radial maze using a cross-over design study. This behavioral test uses a standard eight-arm radial maze wherein five arms were open and baited with food pellets for the first morning session. Each animal was allowed to consume the food rewards present in the open arms and was then returned to its home cage. Six hours later animals were returned to the maze, wherein all eight-arms were open, but only the three arms previously closed contained food rewards. Scoring was based on the number of correct choices before an incorrect choice (re-entering an arm that was visited during the morning acquisition session) was made and on the total number of incorrect choices made before all three of the still baited arms were visited. CX717 was tested at six doses (0.03, 0.1, 0.3, 1, 3 and 10 mg/kg in hydroxypropyl β-cyclodextran, i.p.), administered 30 min prior to the start of the morning acquisition session and no drug was given prior to the second trial six hours later.
For CX1739 male Sprague-Dawley rats were trained to perform the win shift assay on the radial arm maze for approximately 10 weeks prior to the study. On each day of training and testing, each rat completed one trial, split into a sample phase and a test phase. During the sample phase, the rat was placed on a 12-arm radial arm maze surrounded by visual cues. Food wells at the end of each arm were baited with sucrose pellets but access to three arms, selected randomly, was blocked with a clear plastic divider at the arm entrance. The rat was allowed 5 minutes to search the maze and collect the available food pellets before being removed from the maze. Fifteen minutes later the rat was returned to the maze for the test phase of the trial. During the test phase, the rat was allowed access to all 12 arms of the maze but only the arms that had been blocked previously were baited with sucrose pellets. The rat was allowed 3 minutes to collect the available food pellets before being removed from the maze. On test days, rats were injected with CX1739 (0.03-1.0 mg/kg, i.p.) or vehicle immediately following the sample phase of the study. The primary dependent measure was the cumulative number of arm entries prior to entering the first, second, and third baited arm during the test phase.

Rat (SD) [2] = assay: Amphetamine-stimulated locomotion and rearing in rats; assay type: in vivo; details: for Minimum Effective Dose: PO, dose range 1-10 mg/kg
Experimental: Effects of exemplary low impact ampakines were also evaluated in mice for the ability to inhibit amphetamine-stimulated locomotor activity. Mice were placed in the locomotor chamber for 20 min to habituate, removed, injected with either vehicle or anti-ADHD ampakine (CX717), and 5 min later injected with 2 mg/kg i.p. Amphetamine. Mice were returned to the locomotor chamber 10 min later, and their activity measured for a further 15 min. In related studies, adult male CD1 mice or male Sprague-Dawley rats were acclimated in a test chamber for 20 minutes removed and dosed i.p. (mice) or orally (rats) with CX1739, vehicle, or a reference compound. Five (mice) or 10 (rats) were then injected with amphetamine (2 mg/kg, i.p.) or saline vehicle and were returned to the activity test chamber.

[3] = system: aged Rhesus macaque monkeys; assay: Delayed match-to-sample test; assay type: in vivo, Monkey (Rhesus); details: for Minimum Effective Dose: PO
Experimental: Further elucidating the potent behavioral and cognitive effects of exemplary ampakines useful within the invention, additional studies using the well known Monkey Delayed Match to Sample assay were conducted. CX1739 was evaluated using aged Rhesus macaque monkeys (18 to 33 years old), undertaking the delayed match-to-sample (DMTS) task. The stimuli included red, blue, or yellow rectangles. A trial was initiated by presentation of a sample rectangle composed of one of the three colors. The sample rectangle remained in view until the monkey touched within its borders to initiate a pre-programmed delay (retention) interval. Following the delay interval, two choice rectangles were presented, with one of the two choice colors being the color matching the stimulus and the other (incorrect) color as one of the two remaining colors. A correct (matching) choice was reinforced. Non-matching choices were neither reinforced nor punished. The duration for each delay interval was adjusted for each subject until […] of group performance accuracy approximated zero delay (85-100% of trials answered correctly), short delay interval (75-84% correct), medium delay interval (65-74% correct), and long delay interval (55-64% correct). The inter-trial interval was 5 seconds and each session consisted of 96 trials.

[4] = aged rats, eight-arm maze, 0.03-10 mg/kg i.p.

Row | Structure (SMILES) | GPCR agonist and antagonist activity (64 GPCRs) | entries before finding the third arm with a food pellet reward (Rat (SD) [1]; 0.3 mg/kg, 12-arm maze, p<0.05) | Minimum Effective Dose (Rat (SD) [1]) | optimal dose (dose producing the maximal effect) in the maze assay (Rat (SD) [1]; ip) | Minimum Effective Dose (Rat (SD) [2]) | amphetamine-stimulated rearing behavior (Rat (SD) [2]; rats, all doses tested) | Minimum Effective Dose [3] | performance with medium or long delays ([3]; oral, 45 min prior to testing) | mean accuracies during short delay trials relative to vehicle ([3]; oral, 45 min prior to testing, particularly the two higher doses, persisted at 24 hours) | task accuracy at the Best Dose ([3]; sessions 45 min after administration, P=0.027, restricted to long delay trials) | doses with highly significant difference in performance between drug and vehicle days (Rat (SD) [1]; Kruskal-Wallace P=0.008, Wilcoxon Signed Rank Test) | number of correct choices (before making an error) in the second maze session (Rat (SD) [1]; [4]) | total number of errors (Rat (SD) [1]; [4]) | amphetamine-stimulated locomotion activity (Rat (SD) [2]; 3 mg/kg) | amphetamine-stimulated rearing (Rat (SD) [2]; 1 and 3 mg/kg)
1 | CN(C(=O)c1ccc2nonc2c1)C1CCOCC1 [CX1739, N-Methyl-N-tetrahydro-2H-pyran-4-yl-[2,1,3]-benzoxadiazole-5-carboxamide] | did not exhibit any significant agonist or antagonist activity | significantly fewer entries | 0.3 mg/kg | 0.3 mg/kg | 1 mg/kg | modest reduction | 0.3 mg/kg | did not improve performance | increased | statistically significant increase in task accuracy | – | – | – | – | –
2 | O=C(c1ccc2nonc2c1)N1CCOCC1 [CX717, 1-(benzofurazan-5-ylcarbonyl)morpholine] | – | – | 0.3 mg/kg | – | 1 mg/kg | – | 0.8 mg/kg | – | – | – | ≥ 0.3 mg/kg | dose-dependent increase | decrease | significant decrease | inhibits rearing
